Type in all cases: cell-based
The target in experiment [1] is T1, Human GPR120 short form (Homo sapiens, UniProt Q5NUL3).
T1 construct: expressed in transfected cells
T1 sequence (Q5NUL3 1-361): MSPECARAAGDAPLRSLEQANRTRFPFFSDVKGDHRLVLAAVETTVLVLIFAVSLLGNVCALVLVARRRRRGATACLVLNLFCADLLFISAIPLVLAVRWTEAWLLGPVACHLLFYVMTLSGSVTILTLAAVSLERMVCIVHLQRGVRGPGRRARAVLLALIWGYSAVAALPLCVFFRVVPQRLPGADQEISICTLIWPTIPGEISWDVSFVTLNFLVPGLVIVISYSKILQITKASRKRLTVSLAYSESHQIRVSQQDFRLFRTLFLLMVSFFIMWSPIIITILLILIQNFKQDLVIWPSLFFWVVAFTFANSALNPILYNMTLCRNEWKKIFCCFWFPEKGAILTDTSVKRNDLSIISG
The experiment can be described thus: Human GPR120 calcium flux assay, Procedure Calcium A. The following applies: HEK-293 cells expressing human GPR120 short form, 2500 cells/well, FLIPR. Summed up: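 HEK293 cells stably expressing the human GPR120 short splice variant (NM_001195755.1) were seeded at 2500 cells/well, serum-starved 1 h and loaded with Fluo-4 NW plus probenecid. Compounds (100–0.012 μM solutions, 0.2% final DMSO) were added, and FLIPR calcium flux was read for 300 s. EC50 came from a variable-slope fit (Hill <2) of Fmax−Fmin.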

For experiment [2], the target named is T2, long form of human GPR120 (Homo sapiens, UniProt Q5NUL3).
T2 construct: host or cells: PathHunter CHO-K1 GPR120 β-Arrestin Cell Line
The experiment is described as follows: Human GPR120 DiscoveRx PathHunter β-Arrestin assay, Procedure β-arrestin A. The note with it: PathHunter CHO-K1 GPR120 β-Arrestin cell line, 3000 cells per well. From the text: The binding of an agonist (medium/long chain fatty acids or small molecule agonists) to the G-protein-coupled receptor GPR120 activates phospholipase C, leading to release of intracellular Ca^+2 through the generation of inositol 1,4,5-trisphosphate (InsP3 or IP3). GPR120 activation can also trigger intracellular signaling via recruitment of β-Arrestin. In the present method, agonist-induced activation of the human GPR120 receptor is monitored through the use of PathHunter CHO-K1 GPR120 β-Arrestin Cell Line engineered by DiscoveRx, as detailed below. The cell lines are designed to co-express both the ProLink/Enzyme Donor (PK)-tagged GPCR and the Enzyme […] (EA)-tagged Beta-Arrestin fusion proteins. Upon GPR120 receptor stimulation/activation, the EA-tagged β-Arrestin portion is translocated to the tagged receptor, where the two enzyme fragments are brought within close proximity. Under these conditions, these fragments can interact and form an active Beta-gal enzyme complex through Enzyme Fragment Complementation (EFC). This active Beta-gal complex can enzymatically hydrolyse the substrate to produce a detectable light signal; therefore, activation as a function of agonist concentration can be expressed as an EC50 value to determine relative compound activities. This in vitro assay therefore serves to assess compound agonist activity of the GPR120.
In Procedure β-arrestin A, the cell used were PathHunter CHO-K1 GPR120 β-Arrestin Cell Line, expressing the long form of human GPR120 (Genbank accession number NM_181745), with 3000 cells per well.
The selected CHO-K1 GPR120 β-Arrestin cells were cultured in Ham's F12 media supplemented with 10% fetal bovine serum (FBS), 1% Glutamine, 1×p/s, 800 μg/ml G418 and 300 μg/ml Hygromycin B (for selection). Cell stocks were maintained and grown in a sub-confluent state using standard cell culture procedures. The day before the experiment, the cells were harvested with non-enzymatic cell dissociation buffer and re-suspended in complete growth media at the desired concentration. A Corning 384-plate was then seeded with the proper number of cells in a volume of 25 μL, per well. The seeded plates were incubated overnight at 37° C.
On the day of the experiment, the Assay Buffer containing (a) HBSS with Ca^++ and Mg^++, (b) 20 mM HEPES, and (c) 0.1% BSA stabilizer (pH 7.4) was prepared. The growth medium was gently removed from the cell plates and 20 μL of Assay Buffer added to each well. The plate was then incubated at 37° C. for 60 mins. Test compounds were serially diluted in Assay Buffer to desired concentrations (more particularly, to one or more of the following μM concentrations: 25 μM, 12.5 μM, 6.25 μM, 3.125 μM, 1.562 μM, 0.781 μM, 0.391 μM, 0.195 μM, 0.098 μM, 0.049 μM, 0.024 μM, 0.012 μM). Five μl of compound dilution was then added to each well and the plate incubated at 37° C. for 90 mins. The detection reagents were prepared according to the manufacture's instruction. Twelve μL of the detection reagents were added to each well and the plate incubated at room temperature for 60 mins.
The plates were read on an EnVision instrument, using Protocol name: Luminescence, Plate type: 384 Costar, Measurement height: 3 mm, Measurement time: 1 s, Aperture: 384 Plate aperture. The % activity relative to the positive control was calculated using the following equation:
The % Activity values were plotted versus the concentration of test compound and fitted to a sigmoidal dose-response curve with a Hill slope=1 (fixed value) using nonlinear regression with GraphPad Prism 5.0 to calculate the EC50 values. The Fitting Equation was: Y=Bottom+(Top−Bottom)/(1+10^((LogEC50−X)*HillSlope)), where X is the log of the concentration and Y is the response.

For experiment [3], the target named is T1, Human GPR120 short form. The experiment can be described thus: Human GPR120 calcium flux assay, Procedure Calcium B. The note with it: HEK-293 cells expressing human GPR120 short form, 4200 cells/well, FLIPR. (In general: Calcium assays in cells follow changes in intracellular calcium, usually with a dye or a luminescent sensor.)

T2 sequence (Q5NUL3 1-377 isoform Q5NUL3-1): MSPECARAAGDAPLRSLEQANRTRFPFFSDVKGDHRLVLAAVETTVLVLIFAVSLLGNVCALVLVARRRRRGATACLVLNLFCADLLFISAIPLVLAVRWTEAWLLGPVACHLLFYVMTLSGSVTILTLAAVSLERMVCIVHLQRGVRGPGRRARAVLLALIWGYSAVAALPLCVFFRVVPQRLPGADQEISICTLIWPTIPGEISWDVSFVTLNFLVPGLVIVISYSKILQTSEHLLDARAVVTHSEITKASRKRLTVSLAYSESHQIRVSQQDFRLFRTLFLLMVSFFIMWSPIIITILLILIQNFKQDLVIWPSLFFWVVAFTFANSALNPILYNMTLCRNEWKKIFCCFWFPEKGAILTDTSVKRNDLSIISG
T2 sequence (P32121 whole entry partner): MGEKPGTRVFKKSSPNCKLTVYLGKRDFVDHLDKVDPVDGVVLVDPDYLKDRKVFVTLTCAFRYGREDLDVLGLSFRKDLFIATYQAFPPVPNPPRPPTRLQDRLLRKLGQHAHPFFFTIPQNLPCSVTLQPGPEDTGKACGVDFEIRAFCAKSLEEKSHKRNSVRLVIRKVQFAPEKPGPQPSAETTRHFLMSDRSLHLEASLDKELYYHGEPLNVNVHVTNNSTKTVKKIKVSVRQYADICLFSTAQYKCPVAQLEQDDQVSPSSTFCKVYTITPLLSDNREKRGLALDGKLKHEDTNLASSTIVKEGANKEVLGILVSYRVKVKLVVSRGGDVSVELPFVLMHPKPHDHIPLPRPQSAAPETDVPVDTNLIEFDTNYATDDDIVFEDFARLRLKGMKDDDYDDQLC

Regarding `O=C(O)CCc1ccc(OCc2c(Cl)ccn2-c2ccc(Cl)cc2)c(F)c1F` [Compound 11, 3-(4-{[3-chloro-1-(4-chlorophenyl)-1H-pyrrol-2-yl]methoxy}-2,3-difluorophenyl)propanoic acid], the 50% effective concentration (EC50) at Human GPR120 short form [1] is 934 nM; in experiment [2] it was 859 nM; at Human GPR120 short form [3] it was 161 nM.
For the compound `CCc1ccc(-n2ccc(C(F)(F)F)c2COc2c(F)cc(CCCO)cc2F)cc1` [Compound 33, 3-(4-[[1-(4-ethylphenyl)-3-(trifluoromethyl)-1H-pyrrol-2-yl]methoxy]-3,5-difluoro-phenyl)propan-1-ol], the figures for the EC50 (on Human GPR120 short form [1]; in experiment [2]; on Human GPR120 short form [3]) were 434 nM, 48 nM and 82 nM, respectively.
With `Cc1ccc(-n2ccc(C(F)(F)F)c2COc2c(F)cc(CCCO)cc2F)cc1` [Compound 37, 3-(3,5-difluoro-4-[[1-(4-methylphenyl)-3-(trifluoromethyl)-1H-pyrrol-2-yl]methoxy]phenyl)propan-1-ol], the EC50 at Human GPR120 short form [1] came out at 119 nM; in experiment [2], 16 nM; on Human GPR120 short form [3], 28 nM.
Take `OCCCc1cc(F)c(OCc2c(C(F)(F)F)ccn2-c2ccc(Br)cc2)c(F)c1` [Compound 30, 3-(4-[[1-(4-bromophenyl)-3-(trifluoromethyl)-1H-pyrrol-2-yl]methoxy]-3,5-difluorophenyl)propan-1-ol]: the EC50 on Human GPR120 short form [1] worked out at 427 nM; in experiment [2], 25 nM; at Human GPR120 short form [3], 246 nM.
As for `O=C(O)CCc1ccc(OCc2c(Br)ccn2-c2ccc(Cl)cc2)c(F)c1F` [Compound 6, 3-(4-{[3-Bromo-1-(4-chlorophenyl)-1H-pyrrol-2-yl]methoxy}-2,3-difluorophenyl)propanoic acid], the half-maximal effective concentration (EC50) was determined as 819 nM on Human GPR120 short form [1], 730 nM in experiment [2] and 161 nM on Human GPR120 short form [3].
Take `Cc1c(CCCO)ccc(OCc2c(C(F)(F)F)ccn2-c2ccc(Cl)cc2)c1C` [Compound 17, 3-(4-{[1-(4-Chlorophenyl)-3-(trifluoromethyl)-1H-pyrrol-2-yl]methoxy}-2,3-dimethylphenyl)propan-1-ol]: the results for the EC50 (at Human GPR120 short form [1]; in experiment [2]; at Human GPR120 short form [3]) were 1090 nM, 238 nM and 533 nM, respectively.
On to `COc1ccc(-n2ccc(C(F)(F)F)c2COc2ccc(CCC(=O)O)c(C)c2C)cc1` [Compound 24, 3-(4-{[1-(4-Methoxyphenyl)-3-(trifluoromethyl)-1H-pyrrol-2-yl]methoxy}-2,3-dimethylphenyl)propanoic acid], for which the EC50 on Human GPR120 short form [1] was found to be 931 nM; in experiment [2] it was 308 nM; at Human GPR120 short form [3], 227 nM.
Taken in the same sequence, the figures for `OCCCc1cc(F)c(OCc2c(C(F)(F)F)ccn2-c2ccc(Cl)cc2)c(F)c1` [Compound 46, 3-(4-{[1-(4-Chlorophenyl)-3-(trifluoromethyl)-1H-pyrrol-2-yl]methoxy}-3,5-difluorophenyl)propan-1-ol] were 621 nM, 99 nM and 43 nM.
The matching figures for `OCCCc1ccc(OCc2c(Br)ccn2-c2ccc(Cl)cc2)c(F)c1F` [Compound 5, 3-(4-{[3-Bromo-1-(4-chlorophenyl)-1H-pyrrol-2-yl]methoxy}-2,3-difluorophenyl)propan-1-ol]: 435 nM, 130 nM and 368 nM.
For `Cc1ccc(-n2ccc(C(F)(F)F)c2COc2c(F)cc(CCC(=O)O)cc2F)cn1` [Compound 49, 3-(3,5-Difluoro-4-{[1-(6-methylpyridin-3-yl)-3-(trifluoromethyl)-1H-pyrrol-2-yl]methoxy}phenyl)propanoic acid], the results for the EC50 (at Human GPR120 short form [1]; in experiment [2]; at Human GPR120 short form [3]) were 870 nM, 1240 nM and 289 nM, respectively.
As for `COc1ccc(-n2ccc(C(F)(F)F)c2COc2ccc(CCCO)c(C)c2C)cc1` [Compound 25, 3-(4-{[1-(4-Methoxyphenyl)-3-(trifluoromethyl)-1H-pyrrol-2-yl]methoxy}-2,3-dimethylphenyl)propan-1-ol], the EC50 was found to be 608 nM on Human GPR120 short form [1], 203 nM in experiment [2] and 413 nM on Human GPR120 short form [3].
The matching figures for `Cc1c(CCC(=O)O)ccc(OCc2c(Cl)ccn2-c2ccc(Cl)cc2)c1C` [Compound 8, 3-(4-{[3-Chloro-1-(4-chlorophenyl)-1H-pyrrol-2-yl]methoxy}-2,3-dimethylphenyl)propanoic acid]: 528 nM, 1000 nM and 173 nM.
On to `O=C(O)CCc1cc(F)c(OCc2c(C(F)(F)F)ccn2-c2ccccc2)c(F)c1` [Compound 38, 3-(3,5-difluoro-4-((1-phenyl-3-(trifluoromethyl)-1H-pyrrol-2-yl)methoxy)phenyl)propanoic acid], for which the concentration for a half-maximal effect (EC50) on Human GPR120 short form [1] was 450 nM; in experiment [2], 678 nM; on Human GPR120 short form [3], 101 nM.
Regarding `Cc1c(CCCO)ccc(OCc2c(C(F)(F)F)ccn2-c2ccccc2)c1C` [Compound 19, 3-(2,3-Dimethyl-4-{[1-phenyl-3-(trifluoromethyl)-1H-pyrrol-2-yl]methoxy}phenyl)propan-1-ol], the EC50 was found to be 843 nM at Human GPR120 short form [1], 283 nM in experiment [2] and 261 nM on Human GPR120 short form [3].
Turning to `Cc1ccc(-n2ccc(C(F)(F)F)c2COc2ccc(CCCO)c(F)c2F)cc1` [Compound 44, 3-(2,3-difluoro-4-[[1-(4-methylphenyl)-3-(trifluoromethyl)-1H-pyrrol-2-yl]methoxy]phenyl)propan-1-ol], the figures for the half-maximal effective concentration (EC50) (on Human GPR120 short form [1]; in experiment [2]; on Human GPR120 short form [3]) were 432 nM, 98 nM and 50 nM, respectively.
For `Cc1c(CCC(=O)O)ccc(OCc2c(C(F)(F)F)ccn2-c2ccc(Cl)cc2)c1C` [Compound 15, 3-(4-{[1-(4-Chlorophenyl)-3-(trifluoromethyl)-1H-pyrrol-2-yl]methoxy}-2,3-dimethylphenyl)propanoic acid], the EC50 at Human GPR120 short form [1] worked out at 993 nM; in experiment [2], 1100 nM; on Human GPR120 short form [3] it was 88 nM.
Consider `COc1ccc(-n2ccc(C(F)(F)F)c2COc2ccc(CCC(=O)O)c(F)c2F)cc1` [Compound 26, 3-(2,3-Difluoro-4-{[1-(4-methoxyphenyl)-3-(trifluoromethyl)-1H-pyrrol-2-yl]methoxy}phenyl)propanoic acid], for which the EC50 on Human GPR120 short form [1] was 916 nM; in experiment [2] it was 249 nM; at Human GPR120 short form [3], 230 nM.
As for `CCc1ccc(-n2ccc(C(F)(F)F)c2COc2ccc(CCC(=O)O)c(C)c2C)cc1` [Compound 36, 3-(4-[[1-(4-ethylphenyl)-3-(trifluoromethyl)-1H-pyrrol-2-yl]methoxy]-2,3-dimethylphenyl)propanoic acid], the EC50 at Human GPR120 short form [1] is 444 nM; in experiment [2], 120 nM; at Human GPR120 short form [3], 145 nM.

A word on the EC50: it is the concentration needed to bring the measured effect to its halfway point.

Source of the values: patent US8912227B1, “Bicyclic pyrrole derivatives useful as agonists of GPR120” (Janssen Pharmaceutica NV, priority 2014, dated 2014).
